Source: publication PMC6964273 (ACS Omega, 2019)
Read-outs that look alike come from different tables or passages of the source.

Experiments:
C3PV cell line = assay: MTT cell viability assay on normal primary fibroblasts C3PV; format: cell-based, human; conditions: for IC50: 24 h, read-out: IC50 ± SD C3PV
[1] = test system: cervical cancer cell line (HeLa); assay: MTT cell viability assay on HeLa; format: cell-based, human
[2] = test system: SK-MEL3 metastatic melanoma cancer cell line; assay: MTT cell viability assay on SK-MEL3; format: cell-based, human; conditions: read-out: IC50 ± SD SK-MEL3
[3] = test system: SK-MEL24 metastatic melanoma cancer cell line; assay: MTT cell viability assay on SK-MEL24; format: cell-based, human; conditions: read-out: IC50 ± SD SK-MEL24
[4] = test system: RPMI-7951 metastatic melanoma cancer cell line; assay: MTT cell viability assay on RPMI-7951; format: cell-based, human; conditions: read-out: IC50 ± SD RPMI-7951
[5] = test system: RPMI-7951 cancer cell line; assay: DFO assay; format: cell-based, human
SK-MEL3 cancer cell line = assay: DFO assay; format: cell-based, human
[6] = test system: SK-MEL24 cancer cell line; assay: DFO assay; format: cell-based, human
[7] = Stability in the cell culture medium by TLC and HPLC; format: physicochemical; conditions: 48 h, room temperature
[8] = Homo sapiens, read-out: IC50 ± SD HeLa
[9] = Homo sapiens, RPMI-7951, 24 h, read-out: IC50 ± SD RPMI-7951 without DFO
[10] = Homo sapiens, RPMI-7951, read-out: IC50 ± SD RPMI-7951 with DFO
[11] = Homo sapiens, SK-MEL3, 24 h, read-out: IC50 ± SD SK-MEL3 without DFO
[12] = Homo sapiens, SK-MEL3, read-out: IC50 ± SD SK-MEL3 with DFO
[13] = Homo sapiens, SK-MEL-24, 24 h, read-out: IC50 ± SD SK-MEL24 without DFO
[14] = Homo sapiens, SK-MEL-24, read-out: IC50 ± SD SK-MEL24 with DFO
[15] = read-out: IC50 ± SD RPMI-7951 without DFO, without DFO, treatment time 24 hours
[16] = read-out: IC50 ± SD SK-MEL3 without DFO, without DFO, treatment time 24 hours
[17] = read-out: IC50 ± SD SK-MEL24 without DFO, without DFO, treatment time 24 hours

IC50 [1, 8] | IC50 ([2]; Homo sapiens, SK-MEL3, 24 h) | IC50 ([3]; Homo sapiens, SK-MEL-24, 24 h) | IC50 ([4]; Homo sapiens, RPMI-7951, 24 h) | Compound | IC50 (C3PV cell line; Homo sapiens, C3PV) | other results
4680 ± 1640 nM | 1160 ± 320 nM | 2610 ± 340 nM | 840 ± 340 nM | C=CCc1ccc(O)c(OC)c1 [Compound 6, eugenol] | 6880 ± 85 nM | 
1630 ± 400 nM | 1370 ± 590 nM | 2690 ± 1300 nM | 1710 ± 520 nM | C=C(C)[C@@H]1CC=C(CO)CC1 [Compound 7, perillyl alcohol] | 3800 ± 280 nM | 
1760 ± 380 nM | > 300000 nM | 820 ± 370 nM | 1080 ± 560 nM | C[C@H]1[C@H](OC(=O)CCC(=O)O)O[C@@H]2O[C@@]3(C)CC[C@H]4[C@H](C)CC[C@@H]1[C@@]24OO3 [Compound 3, artesunate] | 1680 ± 440 nM | IC50 [5, 9]: 1080 ± 600 nM; IC50 [5, 10]: 1090 ± 900 nM; IC50 (SK-MEL3 cancer cell line; [11]): > 300000 nM; IC50 (SK-MEL3 cancer cell line; [12]): > 300000 nM; IC50 [6, 13]: 820 ± 50 nM; IC50 [6, 14]: 900 ± 20 nM
6 ± 1.4 nM | 4730 ± 830 nM | 1040 ± 310 nM | 13 nM | CC(=O)O[C@H]1C(=O)[C@@]2(C)[C@H]([C@H](OC(=O)c3ccccc3)[C@]3(O)C[C@H](OC(=O)[C@H](O)[C@@H](NC(=O)c4ccccc4)c4ccccc4)C(C)=C1C3(C)C)[C@]1(OC(C)=O)CO[C@@H]1C[C@@H]2O [paclitaxel] | 78900 ± 790 nM | 
3030 ± 1500 nM | 1220 ± 640 nM | 2350 ± 1050 nM | 4110 ± 2100 nM | Cc1c(C)c2c(c(C)c1O)CC[C@@](C)(CCC[C@H](C)CCC[C@H](C)CCCC(C)C)O2 [Compound 9, α-tocopherol] | 74100 ± 5090 nM | 
1320 ± 260 nM | 10400 ± 610 nM | 3230 ± 1600 nM | 910 ± 450 nM | C[C@H]1[C@@H](O)O[C@@H]2O[C@@]3(C)CC[C@H]4[C@H](C)CC[C@@H]1[C@@]24OO3 [Compound 2, dihydroartemisinin] | 680 ± 190 nM | 
 |  |  |  | C=CCc1ccc(OC(=O)CCC(=O)OC2OC3OC4(C)CCC5C(C)CCC(C2C)C35OO4)c(OC)c1 (stereo not drawn) [Compound 11ii] |  | IC50 (C3PV cell line; normal human primary fibroblast cell line, MTT): 6790 ± 150 nM; IC50 ([1]; read-out: IC50 ± SD HeLa, MTT): 1440 ± 1090 nM; IC50 ([2]; SK-MEL3, MTT, 24 h): 4650 ± 1800 nM; IC50 ([3]; SK-MEL24, MTT, 24 h): 5440 ± 2400 nM; IC50 ([4]; RPMI-7951, MTT, 24 h): 1210 ± 630 nM
 |  |  |  | C[C@H]1[C@H](OC(=O)CCC(=O)Oc2ccc(CCO)cc2)O[C@@H]2O[C@@]3(C)CC[C@H]4[C@H](C)CC[C@@H]1[C@@]24OO3 [Compound 11iv] |  | cytotoxicity on normal cell line C3PV (in words) (C3PV cell line; C3PV, MTT): not cytotoxic; activity against HeLa (in words) ([1]; MTT): inactive; IC50 ([1]; read-out: IC50 ± SD HeLa, MTT): > 300000 nM; IC50 ([2]; SK-MEL3, MTT, 24 h): 2330 ± 1180 nM; IC50 ([3]; SK-MEL24, MTT, 24 h): 2320 ± 1190 nM; IC50 ([4]; RPMI-7951, MTT, 24 h): 8340 ± 3060 nM; IC50 [5, 15]: 8340 ± 2700 nM; IC50 (SK-MEL3 cancer cell line; [16]): 2330 ± 90 nM; IC50 [6, 17]: 2320 ± 900 nM; stability in the cell culture medium (ester bond; release of tyrosol) [7]: No traces of tyrosol were observed
 |  |  |  | C=C(C)C1CC=C(COC(=O)CCC(=O)OC2OC3OC4(C)CCC5C(C)CCC(C2C)C35OO4)CC1 (stereo not drawn) [Compound 11iii] |  | cytotoxicity on normal cell line C3PV (in words) (C3PV cell line; C3PV, MTT): not cytotoxic; IC50 ([1]; read-out: IC50 ± SD HeLa, MTT): 1760 ± 470 nM; IC50 ([2]; SK-MEL3, MTT, 24 h): 5240 ± 2290 nM; IC50 ([3]; SK-MEL24, MTT, 24 h): 60 ± 100 nM; IC50 ([4]; RPMI-7951, MTT, 24 h): 2350 ± 1520 nM; IC50 [5, 15]: 2350 ± 900 nM; IC50 (SK-MEL3 cancer cell line; [16]): 5240 ± 200 nM; IC50 [6, 17]: 60 ± 10 nM
1410 ± 790 nM | 2530 ± 1410 nM | 1690 ± 150 nM | 10800 ± 1400 nM | OCCc1ccc(O)cc1 [Compound 8, tyrosol] | 22700 ± 1830 nM | 
2120 ± 940 nM | 1690 ± 1240 nM | 3000 ± 1350 nM | 3950 ± 90 nM | COc1cc(/C=C/C(=O)CC(=O)/C=C/c2ccc(O)c(OC)c2)ccc1O [Compound 5, curcumin] | > 300000 nM | 

Compound | IC50 [1, 8] | IC50 ([2]; Homo sapiens, SK-MEL3, 24 h) | IC50 ([3]; Homo sapiens, SK-MEL-24, 24 h) | IC50 ([4]; Homo sapiens, RPMI-7951, 24 h) | IC50 (C3PV cell line; Homo sapiens, C3PV) | other results
C[C@@H]1CC[C@H]2[C@@H](C)C(=O)O[C@@H]3O[C@@]4(C)CC[C@@H]1[C@]32OO4 [Compound 1, Artemisinin] | 1370 ± 590 nM | 3430 ± 860 nM | 8660 ± 4560 nM | 3620 ± 990 nM | > 300000 nM | cytotoxicity on normal cell line C3PV (in words) (C3PV cell line; C3PV, MTT): not cytotoxic; IC50 [5, 9]: 3620 ± 1600 nM; IC50 [5, 10]: 29000 ± 2800 nM; IC50 (SK-MEL3 cancer cell line; [11]): 3430 ± 800 nM; IC50 (SK-MEL3 cancer cell line; [12]): > 300000 nM; IC50 [6, 13]: 8660 ± 900 nM; IC50 [6, 14]: 27800 ± 3400 nM
